Patent publication US20260273020A1, “OBESTATIN FOR USE AS ANTINEOPLASTIC AGENT IN THE TREATMENT OF PANCREATIC CANCER” (SERVIZO GALEGO DE SAÚDE, priority 2023, published 2026)

Key:
[1] = test system: Ki67 positive proliferative cells; assay: Ki67 immunohistochemistry of pancreatic tumours; assay type: in vivo, C57BL/6J mice; conditions: tumour area; obestatin 500 nmol/Kg/72 h
Protocol: FIG. 4. (A) Analysis and quantification of Ki67 positive proliferative cells by immunohistochemistry in the pancreatic tumors of C57BL/6J mice (n=4) orthotopically injected with KPC FC1242 cells and treated with vehicle [NaCl, 0.9% (w/v)] or obestatin (500 nmol/Kg/72 h). Magnification: 4×. (B) Immunoblot analysis of pERK1/2(T202/Y204), ERK1/2, pAkt(S473), and Akt in tumoral pancreatic tissue. Results are expressed as fold of control of the non-treated injected mice [control; mean±SE (*, P<0.05)].
Mice were weighed at set times over the 15-day period. The sterilized surgical material was used for the tissue extraction. […] Pancreases were also measured with a scale (cm) and pictures were taken. • Histology—Pancreas samples for histology were fixed in 4% paraformaldehyde in PBS at room temperature overnight. […] The lysates were clarified by centrifugation (18,000×g, 15 min, 4° C.), and the protein concentration was quantified by the Quantipro™ BCA assay kit (Sigma-Aldrich, St. Louis, MO, US). […]
EnVision™ peroxidase FLEX/HRP (Dako Agilent Technologies, Glostrup; DK) was employed as a detection system. […] Ki67 was analysed immunohistochemically. […] For Ki67 expression quantification in the samples, ten fields of the tumour representative DAB images were quantified by using the Fiji/Image J software.

[2] = test system: KPC FC1242 cells; assay: Proliferation assay, cell counting under chronic obestatin treatment; assay type: cell-based, mouse
Protocol: The murine pancreatic cancer cells KPC FC1242 were isolated from PDAC tumour tissues obtained from LSL-KrasG12D; LSL-Trp53R172H; Pdx1-Cre mice of a pure C57BL/6 background. This cell line was kindly donated by David A. Tuveson (Cold Spring Harbor Laboratory, Cold Spring Harbor, New York, US). KPC FC1242 were maintained in DMEN (Lonza, Basel, CH), and supplemented with 10% fetal bovine serum (FBS; Hyclone, GE Healthcare Life Sciences, South Logan, UT, US), 4.5 g/L glucose, 200 mg/L sodium pyruvate, 584 mg/L L-glutamine and 1% penicillin/streptomycin (Sigma-Aldrich, St. Louis, MO, US) and incubated in an atmosphere containing 5% CO2 at 37° C. These cells were periodically tested and resulted negative for mycoplasma contamination.
For the analysis of proliferation the cells were seeded on 12-well plates at an amount of 50,000 cells per well and maintained for 24 h in culture media (see above) to allow attachment. The medium was completely removed and replaced with serum-free media for additional 24 h. […] Twenty-four h after the last treatment, the cells were trypsinized and manually counted with a Neubauer camera.
The total cells were calculated using the following equations counting 10 squares: […]

obestatin
diminution in the number of Ki67 positive cells [1]: 56.0±5.2% | effect on FBS-mediated proliferation ([2]; 100 nM obestatin+10% FBS each 24 h for 72 h): significant inhibitory effect | proliferation (number of cells) ([2]; mouse obestatin (SEQ ID NO: 4) 100 nM each 24 h for 72 h, serum-free): does not activate the proliferation
